Measurements: patent US8486996B2, “Aroylfuranes and aroylthiophenes” (Basilea Pharmaceutica AG, priority 2006, dated 2013)
Where two headings read alike, the source gives them in different places.

Columns and labels:
Format in all cases: cell-based
[1] = Hoechst 33342 nuclear staining (48 h read-out)
Outline: (§1)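 Adherent cells pre-spread 24 h before dosing, suspension cells dosed at seeding; compounds at 0.001 μM-10 μM final, 48 h at culture conditions. Hoechst 33342 (2-5 μg/ml) added for 30 min, then fluorescence microscopy scoring of apoptotic nuclear fraction and apoptosis-specific morphology, reported as scores A-D.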

tumor cells [2] = assay: Hoechst 33342 nuclear staining (48 h read-out)
Outline: as §1

[3] = MTS proliferation assay (72 h read-out); details: MRC5 cells
Outline: (§2)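 Viability was read by MTS absorbance at 492 nm after 3 h with reagent. Before that, cells plated a day earlier at 1.5×10^3–10^4 per well had been incubated with test compound at final concentrations of 0.001–10 μM for 72 h; activity is given as category scores A–D.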

tumor cells [4] = assay: MTS proliferation assay (72 h read-out)
Outline: as §2

[5] = Mitochondrial membrane potential, JC-1 (read-out 48 h); details: PBL, JC-1, 48 h
Outline: (§3)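 Tumor cells were treated with test compounds (adherent cells after 24 h of attachment, suspension cells immediately), medium holding up to 5% DMSO. After 48 h, JC-1 (2-5 μg/ml in added medium) was applied for 30 min. Fluorescence microscopy (FITC/TRITC filters) scored the fraction of cells with dissipated mitochondrial membrane potential as categories A-D.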

tumor cells [6] = assay: as above; details: JC-1, 48 h
Outline: as §3

[7] = MRC5 cells, read-out: Hoechst 33342 nuclear staining EC50, MRC5
[8] = PBL, read-out: Hoechst 33342 nuclear staining EC50, PBL
[9] = HeLa cells, read-out: Hoechst 33342 nuclear staining EC50, HeLa
[10] = Jily cells, read-out: Hoechst 33342 nuclear staining EC50, Jily
[11] = Jurkat cells, read-out: Hoechst 33342 nuclear staining EC50, Jurkat
[12] = HT1080 cells, read-out: MTS proliferation assay IC50, HT1080
[13] = HeLa cells, read-out: MTS proliferation assay IC50, HeLa
[14] = Jily cells, read-out: MTS proliferation assay IC50, Jily
[15] = Jurkat cells, read-out: MTS proliferation assay IC50, Jurkat
[16] = HeLa cells, read-out: Mitochondrial membrane potential (read-out 48 h) HeLa
[17] = Jily cells, read-out: Mitochondrial membrane potential (read-out 48 h) Jily
[18] = Jurkat cells, read-out: Mitochondrial membrane potential (read-out 48 h) Jurkat
[19] = MCF7 cells, read-out: Mitochondrial membrane potential (read-out 48 h) MCF7
[20] = Homo sapiens, MRC5 cells, read-out: Hoechst 33342 nuclear staining EC50, MRC5
[21] = Homo sapiens, HeLa cells, read-out: Hoechst 33342 nuclear staining EC50, HeLa
[22] = Homo sapiens, Jurkat cells, read-out: Hoechst 33342 nuclear staining EC50, Jurkat
[23] = Homo sapiens, HT-1080, HT1080 cells, read-out: MTS proliferation assay IC50, HT1080
[24] = Homo sapiens, HeLa cells, read-out: MTS proliferation assay IC50, HeLa
[25] = Homo sapiens, Jurkat cells, read-out: MTS proliferation assay IC50, Jurkat
[26] = Homo sapiens, HeLa cells, read-out: Mitochondrial membrane potential (read-out 48 h) HeLa
[27] = Homo sapiens, Jurkat cells, read-out: Mitochondrial membrane potential (read-out 48 h) Jurkat
[28] = Homo sapiens, MCF7 cells, read-out: Mitochondrial membrane potential (read-out 48 h) MCF7

EC50 [1, 8] | EC50 (tumor cells [2]; [9]) | EC50 (tumor cells [2]; [10]) | EC50 (tumor cells [2]; [11]) | IC50 (tumor cells [4]; [12]) | IC50 (tumor cells [4]; [13]) | IC50 (tumor cells [4]; [14]) | IC50 (tumor cells [4]; [15]) | EC50 [5] | EC50 (tumor cells [6]; [16]) | EC50 (tumor cells [6]; [17]) | EC50 (tumor cells [6]; [18]) | EC50 (tumor cells [6]; [19]) | EC50 (tumor cells [2]; [21]) | EC50 (tumor cells [2]; [22]) | IC50 (tumor cells [4]; [23]) | Compound | EC50 [1, 7] | IC50 [3] | EC50 [1, 20] | IC50 ([3]; Homo sapiens) | further results
> 1000 nM | > 1000 nM | > 1000 nM | > 1000 nM | > 1000 nM | > 1000 nM | > 1000 nM | > 1000 nM | > 1000 nM | > 1000 nM | > 1000 nM | > 1000 nM | > 1000 nM |  |  |  | O=C(c1cc2cc(OCc3ccccc3)ccc2o1)c1cc(F)ccc1N1CC=CCC1 [Example 109] | > 1000 nM | > 1000 nM |  |  | 
> 1000 nM | > 1000 nM | > 1000 nM | > 1000 nM | > 1000 nM | > 1000 nM | > 1000 nM | > 1000 nM | > 1000 nM | > 1000 nM | > 1000 nM | > 1000 nM | > 1000 nM |  |  |  | O=C(c1cc2cc(OCc3ccccc3)ccc2o1)c1cc(F)ccc1N1CCCCC1 [Example 110] | > 1000 nM | > 1000 nM |  |  | 
> 1000 nM |  | 100 to 1000 nM |  |  |  | 100 to 1000 nM |  | > 1000 nM |  | 100 to 1000 nM |  |  | 100 to 1000 nM | 100 to 1000 nM | > 1000 nM | CCOc1ccc(F)cc1C(=O)c1sc2ncccc2c1N [Example 113, 3-Amino-2-(2′-ethoxy-5-fluorobenzoyl)-thieno[2,3-b]pyridine] |  |  | > 1000 nM | > 1000 nM | IC50 (tumor cells [4]; [24]): 100 to 1000 nM; IC50 (tumor cells [4]; [25]): 100 to 1000 nM; EC50 (tumor cells [6]; [26]): > 1000 nM; EC50 (tumor cells [6]; [27]): 100 to 1000 nM; EC50 (tumor cells [6]; [28]): > 1000 nM
> 1000 nM |  | < 10 nM |  |  |  | 10 to 100 nM |  | > 1000 nM |  |  |  |  | 10 to 100 nM | < 10 nM | 10 to 100 nM | CCOc1ccc(F)cc1C(=O)COc1ccc(Cl)cc1C#N [Example 143, ω-(4-Chloro-2-cyanophenoxy)-2-ethoxy-5-fluoroacetophenone] |  |  | < 10 nM | 10 to 100 nM | IC50 (tumor cells [4]; [24]): 10 to 100 nM; IC50 (tumor cells [4]; [25]): 10 to 100 nM; EC50 (tumor cells [6]; [26]): 10 to 100 nM; EC50 (tumor cells [6]; [27]): < 10 nM; EC50 (tumor cells [6]; [28]): 10 to 100 nM
> 1000 nM | > 1000 nM | 100 to 1000 nM | 100 to 1000 nM | 100 to 1000 nM | 100 to 1000 nM | 100 to 1000 nM | 100 to 1000 nM | 100 to 1000 nM | > 1000 nM | 100 to 1000 nM | 100 to 1000 nM | > 1000 nM |  |  |  | COc1ccccc1C(=O)c1oc2ccc(Cl)cc2c1N [Ref B, reference compound] | > 1000 nM | 100 to 1000 nM |  |  | 
> 1000 nM | > 1000 nM | > 1000 nM | > 1000 nM | > 1000 nM | > 1000 nM | > 1000 nM | > 1000 nM | > 1000 nM | > 1000 nM | > 1000 nM | > 1000 nM | > 1000 nM |  |  |  | COc1ccc(OC)c(C(=O)c2oc3ccc(Cl)cc3c2O)c1 [Ref C, reference compound] | > 1000 nM | > 1000 nM |  |  | 
> 1000 nM | > 1000 nM | 100 to 1000 nM | 100 to 1000 nM | > 1000 nM | 100 to 1000 nM | 100 to 1000 nM | 100 to 1000 nM | > 1000 nM | > 1000 nM |  | 100 to 1000 nM | > 1000 nM |  |  |  | COc1ccc(OC)c(C(=O)COc2ccc(Cl)cc2C#N)c1 [Ref D, reference compound] | > 1000 nM | > 1000 nM |  |  | 
> 1000 nM |  | > 1000 nM |  |  |  | > 1000 nM |  | > 1000 nM |  | > 1000 nM |  |  | > 1000 nM | > 1000 nM | > 1000 nM | COc1ccc(OC)c(C(=O)c2oc3ccccc3c2O)c1 [Reference Example A, 2-(2,5-dimethoxybenzoyl)-3-hydroxybenzofuran, reference compound] |  |  | > 1000 nM | > 1000 nM | IC50 (tumor cells [4]; [24]): > 1000 nM; IC50 (tumor cells [4]; [25]): > 1000 nM; EC50 (tumor cells [6]; [26]): > 1000 nM; EC50 (tumor cells [6]; [27]): > 1000 nM; EC50 (tumor cells [6]; [28]): > 1000 nM
